Source: the supplement of paper PMC7695840
Several values for one entry are separate records, joined by “and”; a condition that tells them apart may be missing. Identical values can stand only once. Counter-ions that a name gives are not always drawn.

Columns and labels:
[1] = test system: Staphylococcus aureus MW2 delta-mecA (mecA-); assay: IC50 (growth, competition assay); settings: cefoxitin: subinhibitory
How it was run: (§1)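 Pre-induced, 1:1-mixed fluorescent S. aureus MW2 mecA+ and ΔmecA strains were grown 20 h at 37 °C, 90% humidity, unshaken, in LB with a daily-set subinhibitory cefoxitin dose, in 1536-well plates. Compounds were given on five- or nine-point 2-fold gradients, in two dye-swapped replicates. DsRed (540/590) and GFP (485/520) were scaled per plate between single-strain control medians, with No Treatment then set to 0.5. Per-strain IC50 was the dose halving the No Treatment signal, or the maximal signal.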

[2] = test system: Staphylococcus aureus MW2 (mecA+); assay: IC50 (growth, competition assay); settings: cefoxitin: subinhibitory
How it was run: as §1

Structure (SMILES)	IC50 ([1]; fluorescent label: DsRed)	IC50 ([1]; fluorescent label: GFP)	IC50 ([2]; fluorescent label: DsRed)	IC50 ([2]; fluorescent label: GFP)
Cc1onc(-c2ccccc2)c1C(=O)N[C@@H]1C(=O)N2[C@@H]1SC(C)(C)[C@@H]2C(=O)O [BACTOCILL]	< 9.85 µM	< 9.85 µM	< 9.85 µM	< 9.85 µM
N=C(NCCCCCCNC(=N)NC(=N)Nc1ccc(Cl)cc1)NC(=N)Nc1ccc(Cl)cc1 [LISIUM]	< 9.85 µM	< 9.85 µM	< 9.85 µM	< 9.85 µM
CC[C@H]1OC(=O)C[C@@H](O)[C@H](C)[C@@H](O[C@@H]2O[C@H](C)[C@@H](O[C@H]3C[C@@](C)(O)[C@@H](O)[C@H](C)O3)[C@H](N(C)C)[C@H]2O)[C@@H](CC=O)C[C@@H](C)C(=O)/C=C/C(C)=C/[C@@H]1CO[C@@H]1O[C@H](C)[C@@H](O)[C@@H](OC)[C@H]1OC [TYLAN]	< 9.85 µM	< 9.85 µM	< 9.85 µM	< 9.85 µM
C[C@H](CCC(=O)O)[C@H]1CC[C@H]2[C@@H]3[C@H](O)C[C@@H]4C[C@H](O)CC[C@]4(C)[C@H]3CC[C@]12C [Chenodeoxycholic acid]	14.8 µM	7.91 µM	54 µM	91.4 µM
Cc1cc(C2CCCCC2)n(O)c(=O)c1 [Ciclopirox ethanolamine]	28.3 µM and 61.2 µM	29.8 µM and 57.2 µM	24.5 µM and 49.9 µM	29.7 µM and 60.7 µM
Cc1cc(OCCCS(C)(=O)=O)cc(C)c1-c1cccc(COc2ccc3c(c2)OC[C@H]3CC(=O)O)c1 [TAK-875]	< 9.85 µM	< 9.85 µM and 12.2 µM	< 9.85 µM and 22.5 µM	14.9 µM and 29.2 µM
CCN(CC)CCOc1ccc(C(=C(Cl)c2ccccc2)c2ccccc2)cc1 [CLOMID]	15.5 µM	< 9.85 µM	23.7 µM	34.5 µM
O=C(O)c1cn(-c2ccc(F)cc2)c2cc(N3CCNCC3)c(F)cc2c1=O [Sarafloxacin HCl]	< 0.498 µM	< 0.498 µM	< 0.498 µM	< 0.498 µM
Clc1ccc(COC(Cn2ccnc2)c2ccc(Cl)cc2Cl)c(Cl)c1 (stereo not given) [MONISTAT]	< 9.85 µM	< 9.85 µM	< 9.85 µM	< 9.85 µM
c1ccc2c(CCNc3ccc(Nc4ccncc4)cc3)c[nH]c2c1	61 µM	37.1 µM	104 µM	138 µM
O=C(O)Cc1cc(I)c(Oc2cc(I)c(O)c(I)c2)c(I)c1 [TETRAC]	< 9.85 µM	< 9.85 µM	< 9.85 µM	< 9.85 µM
CO/N=C(\C(=O)N[C@@H]1C(=O)N2C(C(=O)O)=C(COC(N)=O)CS[C@H]12)c1ccco1 [ZINACEF]	< 9.85 µM	< 9.85 µM	21.3 µM	19.3 µM
Oc1c(Cl)cc(Cl)c2cccnc12 [CAPITROL]	< 9.85 µM	< 9.85 µM	17.9 µM	30 µM
CC1COc2c(N3CCN(C)CC3)c(F)cc3c(=O)c(C(=O)O)cn1c23 (stereo not given) [Ofloxacin]	< 9.85 µM	< 9.85 µM	< 9.85 µM	< 9.85 µM
CC(C)CCC[C@@H](C)[C@H]1CC[C@H]2[C@@H]3CC[C@H]4CC(=O)CC[C@]4(C)[C@H]3CC[C@]12C [CHOLESTAN-3-ONE]	17.3 µM	31.9 µM	> 150 µM	> 150 µM
